These results are taken from ChEMBL document CHEMBL1147724, “Synthesis and in vitro antileukemic activity of some new 1,3-(oxytetraethylenoxy)cyclotriphosphazene derivatives” (2006).

Common to all, as to format: functional
One experiment relates to BALB/3T3. The experiment can be described thus: Antiproliferative activity against BALB/3T3 cell line by MTT assay at 4 ug/ml. The conditions noted are these: Mus musculus; for IC50: read-out: ID50 (the source's name).
The test system of the next experiment is P388. The experiment can be described thus: Antiproliferative activity against mouse P388 cell line by MTT assay at 4 ug/ml. The conditions noted are these: for IC50: read-out: ID50 (the source's name). Background: Tetrazolium dyes change colour on reduction, which living cells bring about.
For a further experiment, the system named is MOLT-4. The experiment can be described thus: Antiproliferative activity against human MOLT4 cell line by MTT assay at 4 ug/ml. The conditions noted are these: for IC50: read-out: ID50 (the source's name).
The test system of another experiment is HL-60. The experiment can be described thus: Antiproliferative activity against human HL60 cell line by MTT assay at 4 ug/ml. The following applies: for IC50: read-out: ID50 (the source's name).
Another experiment concerns L1210. The experiment can be described thus: Antiproliferative activity against mouse L1210 cell line by MTT assay at 4 ug/ml. The following applies: for IC50: read-out: ID50 (the source's name).

Molecules are shown by their SMILES. Converted amounts (≈) assume the structure as drawn. The source made the active and inactive calls. The calls are words filed in the database; no cut-off is given here.

Take `O=Cc1ccccc1OP12=NP(Oc3ccccc3C=O)(Oc3ccccc3C=O)=NP(NCCNc3cccc4c3C(=O)c3ccccc3C4=O)(=N1)OCCOCCOCCOCCO2` (stereo not given): the IC50 with BALB/3T3 is 33.2 µg/mL (≈ 34.7 µM); in the experiment on P388, 2.9 µg/mL (≈ 3.03 µM); in the experiment on MOLT-4, 1.14 µg/mL (≈ 1.19 µM); with HL-60 it was 2.23 µg/mL (≈ 2.33 µM); with L1210, 2.42 µg/mL (≈ 2.53 µM).

On to `ClCC/N=C\c1ccccc1OP12=NP(Oc3ccccc3/C=N\CCCl)(=NP(Oc3ccccc3/C=N\CCCl)(Oc3ccccc3/C=N\CCCl)=N1)OCCOCCOCCOCCO2` (stereo not given), for which the IC50 came to 25.3 µg/mL (≈ 23.9 µM) in the experiment with BALB/3T3; 3.2 µg/mL (≈ 3.03 µM) with P388; 2.1 µg/mL (≈ 1.99 µM) with MOLT-4; 2.9 µg/mL (≈ 2.74 µM) with HL-60; 3.2 µg/mL (≈ 3.03 µM) in the experiment on L1210.

`ClCC/N=C\c1ccccc1OP12=NP(Oc3ccccc3/C=N\CCCl)(Oc3ccccc3/C=N\CCCl)=NP(Oc3ccc4ccccc4c3)(=N1)OCCOCCOCCOCCO2` (stereo not given): the ID50 entry in the experiment with BALB/3T3 is “inactive”. The IC50 in the experiment on P388 amounted to 2.7 µg/mL (≈ 2.65 µM); in the experiment on MOLT-4, 3.11 µg/mL (≈ 3.05 µM); in the experiment with HL-60 it was 2.89 µg/mL (≈ 2.84 µM); in the experiment on L1210, 2.43 µg/mL (≈ 2.39 µM).

As for `O=Cc1ccccc1OP12=NP(Oc3ccccc3C=O)(=NP(Oc3ccccc3C=O)(Oc3ccccc3C=O)=N1)OCCOCCOCCOCCO2` (stereo not given), the IC50 amounted to 12.1 µg/mL (≈ 14.9 µM) in the experiment with BALB/3T3; 3.2 µg/mL (≈ 3.94 µM) with P388; 3.2 µg/mL (≈ 3.94 µM) in the experiment on MOLT-4; 2.7 µg/mL (≈ 3.33 µM) in the experiment on HL-60; 3.2 µg/mL (≈ 3.94 µM) in the experiment with L1210.

Turning to `O=Cc1ccccc1OP12=NP(Oc3ccccc3C=O)(Oc3ccccc3C=O)=NP(Oc3ccc4ccccc4c3)(=N1)OCCOCCOCCOCCO2` (stereo not given), the ID50 entry with BALB/3T3 was “inactive”. Further, the IC50 in the experiment on P388 amounted to 2.55 µg/mL (≈ 3.06 µM); in the experiment on MOLT-4 it was 3.09 µg/mL (≈ 3.71 µM); with HL-60 it was 2.81 µg/mL (≈ 3.37 µM); in the experiment on L1210 it was 2.75 µg/mL (≈ 3.3 µM).

As to `O=C1c2ccccc2C(=O)c2c(NCCNP34=NP(NCCCl)(=NP(NCCCl)(NCCCl)=N3)OCCOCCOCCOCCO4)cccc21` (stereo not given), the ID50 result in the experiment with BALB/3T3 was “inactive”. Moreover, the IC50 in the experiment on P388 turned out to be 19.4 µg/mL (≈ 23.4 µM); with MOLT-4 it was 27.2 µg/mL (≈ 32.8 µM); in the experiment on HL-60, 18.9 µg/mL (≈ 22.8 µM); in the experiment on L1210, 29.3 µg/mL (≈ 35.4 µM).

As to `O=C1c2ccccc2C(=O)c2c(NCCNP34=NP(Cl)(=NP(Cl)(Cl)=N3)OCCOCCOCCOCCO4)cccc21` (stereo not given), in the experiment with BALB/3T3, the ID50 entry is “inactive”. For the same compound, the IC50 in the experiment on P388 was 32.8 µg/mL (≈ 46.9 µM); in the experiment on MOLT-4 it was 29.6 µg/mL (≈ 42.4 µM); with HL-60 it was 38.3 µg/mL (≈ 54.8 µM); in the experiment with L1210 it was 52.8 µg/mL (≈ 75.6 µM).

Take `ClCCNP1(NCCCl)=NP2(NCCCl)=NP(NCCCl)(=N1)OCCOCCOCCOCCO2` (stereo not given): the ID50 result in the experiment with BALB/3T3, in the experiment on P388, in the experiment with MOLT-4, in the experiment on HL-60 and in the experiment with L1210 was “inactive” in each case.

For the compound `O=C1c2ccccc2C(=O)c2c(NCCNP34=NP(Oc5ccccc5/C=N\CCCl)(=NP(Oc5ccccc5/C=N\CCCl)(Oc5ccccc5/C=N\CCCl)=N3)OCCOCCOCCOCCO4)cccc21` (stereo not given), the IC50 in the experiment with BALB/3T3 worked out at 9.54 µg/mL (≈ 8.37 µM); in the experiment on P388, 2.16 µg/mL (≈ 1.89 µM); in the experiment on MOLT-4 it was 3.08 µg/mL (≈ 2.7 µM); with HL-60 it was 2.07 µg/mL (≈ 1.81 µM); in the experiment with L1210 it was 2.69 µg/mL (≈ 2.36 µM).
